Measured values published in patent US12371428B2 (Exelixis, Inc., priority 2019, dated 2025).
Where two headings read alike, the source gives them in different places.

Key:
Type in all cases: cell-based
[1] = target: Mer (phospho-Mer, MERTK-transfected 293A cells) (Homo sapiens (Human), UniProt Q12866); assay: Mer autophosphorylation ELISA in transient transfected 293A cells (Example H); conditions: cellular activity
Procedure, shortened: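 IC50 from phospho-Mer ELISA of MERTK-transfected 293A cell lysates after 1 h treatment with serially diluted compound in serum-free medium.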

[2] = target: Met (phospho-Met, HGF-stimulated PC-3 prostate cancer cells) (Homo sapiens (Human), UniProt P08581); assay: Met autophosphorylation ELISA in PC-3 cells (Example F); conditions: cellular activity, read-out: c-Met IC50
Met (phospho-Met, HGF-stimulated PC-3 prostate cancer cells), sequence (P08581 25-1390): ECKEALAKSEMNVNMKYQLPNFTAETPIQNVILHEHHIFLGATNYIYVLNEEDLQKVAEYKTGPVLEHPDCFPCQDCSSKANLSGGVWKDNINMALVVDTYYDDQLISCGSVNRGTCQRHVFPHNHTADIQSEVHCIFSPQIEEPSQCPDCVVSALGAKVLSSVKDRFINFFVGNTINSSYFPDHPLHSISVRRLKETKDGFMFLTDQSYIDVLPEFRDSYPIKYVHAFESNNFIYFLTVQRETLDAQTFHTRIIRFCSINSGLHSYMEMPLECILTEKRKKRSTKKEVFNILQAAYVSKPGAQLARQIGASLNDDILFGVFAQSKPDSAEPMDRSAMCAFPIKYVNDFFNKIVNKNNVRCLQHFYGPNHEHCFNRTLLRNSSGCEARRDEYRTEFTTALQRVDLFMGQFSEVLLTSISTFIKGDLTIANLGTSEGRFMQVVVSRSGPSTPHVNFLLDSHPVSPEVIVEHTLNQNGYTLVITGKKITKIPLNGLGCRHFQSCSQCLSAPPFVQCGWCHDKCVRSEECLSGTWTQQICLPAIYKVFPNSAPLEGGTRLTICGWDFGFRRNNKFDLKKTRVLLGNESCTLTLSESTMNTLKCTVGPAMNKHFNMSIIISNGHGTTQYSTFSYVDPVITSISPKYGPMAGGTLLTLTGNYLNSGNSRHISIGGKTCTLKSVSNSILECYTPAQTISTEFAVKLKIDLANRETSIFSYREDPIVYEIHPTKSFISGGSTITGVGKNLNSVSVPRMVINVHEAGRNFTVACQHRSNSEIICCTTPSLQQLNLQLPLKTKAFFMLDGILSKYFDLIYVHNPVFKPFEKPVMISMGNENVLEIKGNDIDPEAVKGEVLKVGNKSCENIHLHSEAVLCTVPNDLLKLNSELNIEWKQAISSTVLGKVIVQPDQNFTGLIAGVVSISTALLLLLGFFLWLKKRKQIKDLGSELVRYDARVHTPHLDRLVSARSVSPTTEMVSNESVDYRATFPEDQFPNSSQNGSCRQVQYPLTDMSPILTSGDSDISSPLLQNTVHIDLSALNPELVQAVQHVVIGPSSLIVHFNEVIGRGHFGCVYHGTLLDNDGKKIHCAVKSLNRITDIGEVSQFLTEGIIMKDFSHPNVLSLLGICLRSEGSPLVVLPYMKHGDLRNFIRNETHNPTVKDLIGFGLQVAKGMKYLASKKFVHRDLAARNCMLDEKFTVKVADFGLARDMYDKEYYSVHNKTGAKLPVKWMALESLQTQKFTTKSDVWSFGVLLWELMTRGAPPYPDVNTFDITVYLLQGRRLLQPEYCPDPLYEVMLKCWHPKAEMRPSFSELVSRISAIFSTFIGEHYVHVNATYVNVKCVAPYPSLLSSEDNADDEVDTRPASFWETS
Procedure, shortened: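 Compounds were tested on HGF-stimulated PC-3 cells. After 24 h culture and 3 h serum starvation, cells got compound for 1 h and 100 ng/mL HGF for 10 min, and Met tyrosine phosphorylation was measured by ELISA.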

[3] = target: AXL (phospho-AXL, Gas6-stimulated A-172 glioblastoma cells) (Homo sapiens (Human), UniProt P30530); assay: AXL autophosphorylation ELISA in A-172 cells (Example E); conditions: cellular activity, read-out: Axl IC50
AXL (phospho-AXL, Gas6-stimulated A-172 glioblastoma cells), sequence (P30530 26-894): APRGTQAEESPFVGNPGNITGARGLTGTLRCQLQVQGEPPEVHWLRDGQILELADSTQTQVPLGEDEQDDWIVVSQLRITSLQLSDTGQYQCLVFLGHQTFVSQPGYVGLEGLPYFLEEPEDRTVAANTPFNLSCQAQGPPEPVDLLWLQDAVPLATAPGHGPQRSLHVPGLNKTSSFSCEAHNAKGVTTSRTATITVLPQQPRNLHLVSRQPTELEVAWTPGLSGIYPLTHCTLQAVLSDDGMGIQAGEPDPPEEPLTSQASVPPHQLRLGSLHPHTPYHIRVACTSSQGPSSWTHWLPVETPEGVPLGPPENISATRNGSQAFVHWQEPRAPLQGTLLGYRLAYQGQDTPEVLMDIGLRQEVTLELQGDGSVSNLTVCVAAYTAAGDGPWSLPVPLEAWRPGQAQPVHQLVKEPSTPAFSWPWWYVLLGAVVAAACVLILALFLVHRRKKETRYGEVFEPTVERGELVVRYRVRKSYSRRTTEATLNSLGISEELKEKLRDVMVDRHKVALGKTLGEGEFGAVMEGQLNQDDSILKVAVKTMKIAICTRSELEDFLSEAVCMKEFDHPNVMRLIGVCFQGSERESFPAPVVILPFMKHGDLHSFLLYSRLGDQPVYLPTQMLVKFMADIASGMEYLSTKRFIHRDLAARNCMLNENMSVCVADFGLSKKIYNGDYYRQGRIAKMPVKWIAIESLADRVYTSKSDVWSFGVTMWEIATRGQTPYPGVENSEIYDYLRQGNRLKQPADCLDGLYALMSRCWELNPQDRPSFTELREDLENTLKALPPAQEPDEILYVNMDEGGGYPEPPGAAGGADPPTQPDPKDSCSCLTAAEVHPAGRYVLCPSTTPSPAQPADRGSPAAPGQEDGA
Method: A-172 cells were incubated at 37° C., 5% CO2 for 24 h and then starved for 24 h in serum-free medium. Test compounds were serially diluted to produce an 8-point dose curve in fresh serum-free medium to a final concentration of 0.3% DMSO (vehicle) and added to the cells and incubated for 1 h. […] Lysates were collected and 100 μL/well added into the human phospho-AXL DuoSet IC ELISA (R&D Systems #DYC2228-2). […] Positive control wells (100% activity) contained Gas6-stimulated, DMSO-treated cell lysates. Negative control wells (0% activity) contained Gas6-stimulated, reference inhibitor-treated cell lysates. IC50 values were calculated by nonlinear regression analysis using a 4-parameter logistic curve fit in ActivityBase XE (IDBS).

[4] = target: KDR (phospho-KDR, VEGF165-stimulated HUVEC cells) (Homo sapiens (Human), UniProt P35968); assay: KDR autophosphorylation ELISA in HUVEC cells (Example G); conditions: cellular activity
KDR (phospho-KDR, VEGF165-stimulated HUVEC cells), sequence (P35968 20-1356): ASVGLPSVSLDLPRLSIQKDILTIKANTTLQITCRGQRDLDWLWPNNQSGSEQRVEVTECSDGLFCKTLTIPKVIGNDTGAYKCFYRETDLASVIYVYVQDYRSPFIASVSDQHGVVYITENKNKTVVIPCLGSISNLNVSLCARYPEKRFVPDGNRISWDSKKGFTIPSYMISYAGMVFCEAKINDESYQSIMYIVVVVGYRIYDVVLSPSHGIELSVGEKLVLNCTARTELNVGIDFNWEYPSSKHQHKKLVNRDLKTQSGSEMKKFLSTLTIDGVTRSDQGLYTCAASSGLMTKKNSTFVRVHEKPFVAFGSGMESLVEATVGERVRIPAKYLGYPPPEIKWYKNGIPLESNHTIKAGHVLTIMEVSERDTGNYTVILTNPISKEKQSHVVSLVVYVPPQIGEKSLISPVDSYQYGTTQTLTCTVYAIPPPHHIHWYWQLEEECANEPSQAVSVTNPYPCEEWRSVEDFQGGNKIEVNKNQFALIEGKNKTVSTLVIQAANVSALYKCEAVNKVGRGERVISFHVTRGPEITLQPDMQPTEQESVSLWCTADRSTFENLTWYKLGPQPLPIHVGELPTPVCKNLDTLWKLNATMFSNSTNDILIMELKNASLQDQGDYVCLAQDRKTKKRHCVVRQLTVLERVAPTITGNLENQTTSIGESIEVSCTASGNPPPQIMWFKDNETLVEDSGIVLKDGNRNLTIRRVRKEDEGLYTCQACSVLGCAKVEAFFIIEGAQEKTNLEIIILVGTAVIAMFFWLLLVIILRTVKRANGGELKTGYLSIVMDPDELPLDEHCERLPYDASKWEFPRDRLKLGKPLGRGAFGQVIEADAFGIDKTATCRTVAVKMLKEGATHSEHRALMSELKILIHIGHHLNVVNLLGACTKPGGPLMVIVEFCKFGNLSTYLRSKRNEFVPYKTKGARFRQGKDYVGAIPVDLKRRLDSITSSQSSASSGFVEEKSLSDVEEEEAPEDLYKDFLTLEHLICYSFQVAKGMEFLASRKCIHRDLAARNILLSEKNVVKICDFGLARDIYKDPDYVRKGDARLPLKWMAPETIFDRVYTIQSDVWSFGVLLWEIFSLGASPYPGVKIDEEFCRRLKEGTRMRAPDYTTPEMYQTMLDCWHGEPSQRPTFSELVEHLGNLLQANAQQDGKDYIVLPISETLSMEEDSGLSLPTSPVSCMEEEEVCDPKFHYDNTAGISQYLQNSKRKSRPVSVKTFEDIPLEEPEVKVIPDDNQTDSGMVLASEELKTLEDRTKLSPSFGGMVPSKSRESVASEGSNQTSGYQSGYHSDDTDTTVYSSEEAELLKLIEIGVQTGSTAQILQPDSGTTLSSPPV
Procedure, shortened: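 Inhibition of VEGF165-driven KDR autophosphorylation is measured in primary human umbilical vein endothelial cells after 24 h serum deprivation. Compound preincubation lasts 1 h before a 5-minute challenge with 100 ng/mL ligand, and phosphorylated receptor is then measured by ELISA in the lysates.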

[5] = Mer autophosphorylation ELISA in transient transfected 293A cells
[6] = Met autophosphorylation ELISA in PC-3 cells
[7] = AXL autophosphorylation ELISA in A-172 cells
[8] = KDR autophosphorylation ELISA in HUVEC cells

Mer (phospho-Mer, MERTK-transfected 293A cells), sequence (Q12866 21-999): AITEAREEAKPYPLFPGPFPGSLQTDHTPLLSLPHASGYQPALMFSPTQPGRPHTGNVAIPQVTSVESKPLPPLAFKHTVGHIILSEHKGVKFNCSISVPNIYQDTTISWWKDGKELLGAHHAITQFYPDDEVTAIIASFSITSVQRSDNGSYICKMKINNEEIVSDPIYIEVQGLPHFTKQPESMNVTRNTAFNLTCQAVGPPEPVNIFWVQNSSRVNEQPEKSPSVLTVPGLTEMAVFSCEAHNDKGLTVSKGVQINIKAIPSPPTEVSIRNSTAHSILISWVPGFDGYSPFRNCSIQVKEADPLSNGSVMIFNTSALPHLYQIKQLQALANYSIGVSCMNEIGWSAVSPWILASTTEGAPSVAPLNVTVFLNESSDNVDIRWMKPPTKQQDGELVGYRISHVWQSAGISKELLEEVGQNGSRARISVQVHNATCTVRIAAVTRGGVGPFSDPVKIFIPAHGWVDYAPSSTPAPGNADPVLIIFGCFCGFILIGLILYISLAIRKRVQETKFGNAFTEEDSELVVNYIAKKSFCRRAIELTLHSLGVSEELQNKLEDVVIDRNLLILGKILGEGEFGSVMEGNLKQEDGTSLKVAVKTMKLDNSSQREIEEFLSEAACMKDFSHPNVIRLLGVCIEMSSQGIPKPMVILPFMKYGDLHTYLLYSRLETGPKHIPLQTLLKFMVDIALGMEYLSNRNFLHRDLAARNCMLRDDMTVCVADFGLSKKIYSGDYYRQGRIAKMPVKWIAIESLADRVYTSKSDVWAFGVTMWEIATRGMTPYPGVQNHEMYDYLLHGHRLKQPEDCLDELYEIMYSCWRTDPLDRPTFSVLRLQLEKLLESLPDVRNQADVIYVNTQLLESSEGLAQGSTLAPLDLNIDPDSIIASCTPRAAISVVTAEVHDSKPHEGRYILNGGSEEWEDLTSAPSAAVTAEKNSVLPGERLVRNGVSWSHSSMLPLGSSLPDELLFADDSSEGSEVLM

Row | Compound | IC50 [1, 5] | IC50 [2, 6] | IC50 [3, 7] | IC50 [4, 8] | IC50 ([1]; transfected 293A cells) | IC50 ([2]; PC-3 cells) | IC50 ([3]; A-172 cells) | IC50 ([4]; HUVEC cells)
1 | COc1cc2c(Oc3ccc(NC(=O)c4ncc(C)n(-c5ccc(F)cc5)c4=O)cc3F)ccnc2cn1 [Compound 500, N-[3-fluoro-4-[(6-methoxy-1,7-naphthyridin-4-yl)oxy]phenyl]-4-(4-fluorophenyl)-5-methyl-3-oxopyrazine-2-carboxamide] | < 100 nM | < 100 nM | < 100 nM | 100 to 300 nM |  |  |  | 
2 | COc1cc2nccc(Oc3ccc(NC(=O)c4c(C)n(CCF)cc(-c5ccc(F)c(F)c5)c4=O)cc3F)c2nc1OC [Compound 815, 5-(3,4-difluorophenyl)-N-[4-[(6,7-dimethoxy-1,5-naphthyridin-4-yl)oxy]-3-fluorophenyl]-1-(2-fluoroethyl)-2-methyl-4-oxopyridine-3-carboxamide] |  |  |  |  | < 100 nM | < 100 nM | < 100 nM | 100 to 300 nM
3 | COc1cc2nccc(Oc3ccc(NC(=O)c4c(C)ccn(-c5ccc(F)cc5C)c4=O)cc3F)c2nc1OC [Compound 311, N-[4-[(6,7-Dimethoxy-1,5-naphthyridin-4-yl)oxy]-3-fluorophenyl]-1-(4-fluoro-2-methylphenyl)-4-methyl-2-oxopyridine-3-carboxamide] | < 100 nM | < 100 nM | < 100 nM | < 100 nM |  |  |  | 
4 | CCOCc1nc(C)c(-c2ccc(F)cc2C)c(O)c1C(=O)Nc1ccc(Oc2ccnc3cc(OC)cnc23)c(F)c1 [Compound 667, 2-(ethoxymethyl)-N-[3-fluoro-4-[(7-methoxy-1,5-naphthyridin-4-yl)oxy]phenyl]-5-(4-fluoro-2-methylphenyl)-4-hydroxy-6-methylpyridine-3-carboxamide] | < 100 nM | < 100 nM | < 100 nM | > 300 nM |  |  |  | 

Other lines, results leading:

Row | IC50 [1, 5] | IC50 [2, 6] | IC50 [3, 7] | IC50 [4, 8] | IC50 ([1]; transfected 293A cells) | IC50 ([2]; PC-3 cells) | IC50 ([3]; A-172 cells) | IC50 ([4]; HUVEC cells) | Compound
5 | < 100 nM | < 100 nM | < 100 nM | < 100 nM |  |  |  |  | COCc1cnn(-c2ccc(F)cc2)c(=O)c1C(=O)Nc1ccc(Oc2ccnc3cc(OC)c(OC)nc23)cc1 [Compound 537, N-[4-[(6,7-dimethoxy-1,5-naphthyridin-4-yl)oxy]phenyl]-2-(4-fluorophenyl)-5-(methoxymethyl)-3-oxopyridazine-4-carboxamide]
6 | < 100 nM | < 100 nM | < 100 nM | > 300 nM |  |  |  |  | CCc1c(C)c(C(=O)Nc2ccc(Oc3ccnc4cc(OC)c(OC)nc34)cc2)c(=O)n(-c2ccc(F)cc2)c1C [Compound 331, N-[4-[(6,7-dimethoxy-1,5-naphthyridin-4-yl)oxy]phenyl]-5-ethyl-1-(4-fluorophenyl)-4,6-dimethyl-2-oxopyridine-3-carboxamide]
7 | < 100 nM | 100 to 300 nM | > 300 nM | < 100 nM |  |  |  |  | COc1cnc2c(Oc3ccc(NC(=O)c4cnc(C)c(-c5ccc(OC)c(C)c5)c4O)cc3F)ccnc2c1 [Compound 699, N-[3-fluoro-4-[(7-methoxy-1,5-naphthyridin-4-yl)oxy]phenyl]-4-hydroxy-5-(4-methoxy-3-methylphenyl)-6-methylpyridine-3-carboxamide]
8 | < 100 nM | > 300 nM | < 100 nM | > 300 nM |  |  |  |  | COc1nc2c(Oc3ccc(NC(=O)c4n[nH]c(C)c(-c5ccc(F)cc5C)c4=O)cc3F)ccnc2cc1C [Compound 473, N-[3-fluoro-4-[(6-methoxy-7-methyl-1,5-naphthyridin-4-yl)oxy]phenyl]-5-(4-fluoro-2-methylphenyl)-6-methyl-4-oxo-1H-pyridazine-3-carboxamide]
9 | < 100 nM | 100 to 300 nM | > 300 nM | > 300 nM |  |  |  |  | COc1cnc2c(Oc3ccc(NC(=O)c4cnc(C)c(-c5ccc(S(C)(=O)=O)cc5)c4O)cc3F)ccnc2c1 [Compound 697, N-[3-fluoro-4-[(7-methoxy-1,5-naphthyridin-4-yl)oxy]phenyl]-4-hydroxy-6-methyl-5-(4-methylsulfonylphenyl)pyridine-3-carboxamide]
